Data taken from ChEMBL document CHEMBL3774317, “Design and synthesis of novel tamoxifen analogues that avoid CYP2D6 metabolism” (Eur J Med Chem, 2016).

Assays:
[1] = Cytotoxicity against human HOP62 cells assessed as cell growth at 5 nM after 48 hrs by SRB assay; type: functional; conditions: HOP-62, 48 h, read-out: Activity
[2] = Cytotoxicity against human HCT116 cells assessed as cell growth at 50 nM after 48 hrs by SRB assay; type: functional; conditions: HCT-116, 48 h, read-out: Activity
[3] = Cytotoxicity against human UACC257 cells assessed as cell growth at 5 nM after 48 hrs by SRB assay; type: functional; conditions: UACC-257, 48 h, read-out: Activity
[4] = Cytotoxicity against human OVCAR4 cells assessed as cell growth at 0.5 uM after 48 hrs by SRB assay; type: functional; conditions: OVCAR-4, 48 h, read-out: Activity
KM12 [5] = experiment: Cytotoxicity against human KM12 cells assessed as cell growth at 5 uM after 48 hrs by SRB assay; type: functional; conditions: KM12, 48 h, read-out: Activity
ACHN = experiment: Cytotoxicity against human ACHN cells assessed as cell growth at 50 uM after 48 hrs by SRB assay; type: functional; conditions: read-out: Activity
[6] = Cytotoxicity against human HOP92 cells assessed as cell growth at 0.5 uM after 48 hrs by SRB assay; type: functional; conditions: HOP-92, 48 h, read-out: Activity
MDA-MB-468 = experiment: Cytotoxicity against human MDA-MB-468 cells assessed as cell growth at 50 uM after 48 hrs by SRB assay; type: functional; conditions: MDA-MB-468, 48 h, read-out: Activity
Malme-3M [7] = experiment: Cytotoxicity against human MALME-3M cells assessed as cell growth at 5 uM after 48 hrs by SRB assay; type: functional; conditions: read-out: Activity
[8] = Cytotoxicity against human NCI-ADR-RES cells assessed as cell growth at 50 uM after 48 hrs by SRB assay; type: functional; conditions: read-out: Activity
[9] = Cytotoxicity against human RPMI8226 cells assessed as cell growth at 0.5 uM after 48 hrs by SRB assay; type: functional; conditions: RPMI-8226, 48 h, read-out: Activity
SN12C = experiment: Cytotoxicity against human SN12C cells assessed as cell growth at 5 uM after 48 hrs by SRB assay; type: functional; conditions: read-out: Activity
Malme-3M [10] = experiment: Cytotoxicity against human MALME-3M cells assessed as cell growth at 0.5 uM after 48 hrs by SRB assay; type: functional; conditions: read-out: Activity
[11] = Metabolic stability in human liver microsomes assessed as remaining parent compound level at 10 uM after 3 hrs in presence of NAPDH by LC/MS analysis; type: ADME; conditions: read-out: Drug metabolism
NCI-H226 = experiment: Cytotoxicity against human NCI-H226 cells assessed as cell growth at 50 nM after 48 hrs by SRB assay; type: functional; conditions: NCI-H226, 48 h, read-out: Activity
A549 = experiment: Cytotoxicity against human A549 cells assessed as cell growth at 5 uM after 48 hrs by SRB assay; type: functional; conditions: A549, 48 h, read-out: Activity
786-0 [12] = experiment: Cytotoxicity against human 786-0 cells assessed as cell growth at 50 uM after 48 hrs by SRB assay; type: functional; conditions: 786-0, 48 h, read-out: Activity
[13] = Cytotoxicity against human HOP62 cells assessed as cell growth at 0.5 uM after 48 hrs by SRB assay; type: functional; conditions: HOP-62, 48 h, read-out: Activity
[14] = Metabolic stability in human hepatocytes assessed as remaining parent compound level at 10 uM after 3 hrs by LC/MS analysis; type: ADME, cell-based, Hepatocyte; conditions: read-out: Drug metabolism
[15] = Cytotoxicity against human MOLT4 cells assessed as cell growth at 10^-4 M after 48 hrs by SRB assay; type: functional; conditions: MOLT-4, 48 h, read-out: Activity
[16] = Cytotoxicity against human IGROV1 cells assessed as cell growth at 10^-8 M after 48 hrs by SRB assay; type: functional; conditions: IGROV-1, 48 h, read-out: Activity
786-0 [17] = experiment: Cytotoxicity against human 786-0 cells assessed as cell growth at 10^-4 M after 48 hrs by SRB assay; type: functional; conditions: 786-0, 48 h, read-out: Activity
[18] = Cytotoxicity against human IGROV1 cells assessed as cell growth at 10^-5 M after 48 hrs by SRB assay; type: functional; conditions: IGROV-1, 48 h, read-out: Activity
NCI-H460 = experiment: Cytotoxicity against human NCI-H460 cells assessed as cell growth at 10^-7 M after 48 hrs by SRB assay; type: functional; conditions: NCI-H460, 48 h, read-out: Activity
M14 = experiment: Cytotoxicity against human M14 cells assessed as cell growth at 10^-7 M after 48 hrs by SRB assay; type: functional; conditions: M14, 48 h, read-out: Activity
[19] = Cytotoxicity against human SF268 cells assessed as cell growth at 10^-5 M after 48 hrs by SRB assay; type: functional; conditions: SF-268, 48 h, read-out: Activity
MDA-MB-435 = experiment: Cytotoxicity against human MDA-MB-435 cells assessed as cell growth at 10^-6 M after 48 hrs by SRB assay; type: functional; conditions: MDA-MB-435, 48 h, read-out: Activity
KM12 [20] = experiment: Cytotoxicity against human KM12 cells assessed as cell growth at 10^-6 M after 48 hrs by SRB assay; type: functional; conditions: KM12, 48 h, read-out: Activity
[21] = Cytotoxicity against human UACC257 cells assessed as cell growth at 10^-8 M after 48 hrs by SRB assay; type: functional; conditions: UACC-257, 48 h, read-out: Activity
[22] = Cytotoxicity against human SW620 cells assessed as cell growth at 10^-5 M after 48 hrs by SRB assay; type: functional; conditions: SW-620, 48 h, read-out: Activity
[23] = Cytotoxicity against human HCC2998 cells assessed as cell growth at 10^-8 M after 48 hrs by SRB assay; type: functional; conditions: HCC 2998, 48 h, read-out: Activity
[24] = Cytotoxicity against human UACC257 cells assessed as cell growth at 10^-4 M after 48 hrs by SRB assay; type: functional; conditions: UACC-257, 48 h, read-out: Activity
[25] = Cytotoxicity against human OVCAR4 cells assessed as cell growth at 10^-4 M after 48 hrs by SRB assay; type: functional; conditions: OVCAR-4, 48 h, read-out: Activity
[26] = Cytotoxicity against human LOXIMVI cells assessed as cell growth at 10^-8 M after 48 hrs by SRB assay; type: functional; conditions: LOX IMVI, read-out: Activity
[27] = Cytotoxicity against human HCC2998 cells assessed as cell growth at 10^-7 M after 48 hrs by SRB assay; type: functional; conditions: HCC 2998, 48 h, read-out: Activity
[28] = Cytotoxicity against human UACC62 cells assessed as cell growth at 10^-5 M after 48 hrs by SRB assay; type: functional; conditions: UACC-62, 48 h, read-out: Activity
[29] = Cytotoxicity against human SNB75 cells assessed as cell growth at 10^-7 M after 48 hrs by SRB assay; type: functional; conditions: SNB-75, 48 h, read-out: Activity
MDA-MB-231 = experiment: Cytotoxicity against human MDA-MB-231 cells assessed as cell growth at 10^-8 M after 48 hrs by SRB assay; type: functional; conditions: MDA-MB-231, 48 h, read-out: Activity
[30] = Cytotoxicity against human HL-60(TB) cells assessed as cell growth at 10^-6 M after 48 hrs by SRB assay; type: functional; conditions: HL-60, 48 h, read-out: Activity
[31] = Cytotoxicity against human HCT15 cells assessed as cell growth at 10^-6 M after 48 hrs by SRB assay; type: functional; conditions: HCT-15, 48 h, read-out: Activity
[32] = Cytotoxicity against human HCT116 cells assessed as cell growth at 10^-7 M after 48 hrs by SRB assay; type: functional; conditions: HCT-116, 48 h, read-out: Activity

CCCCCCCCCC(=O)Oc1ccc(/C(=C(/C)c2ccccc2)c2ccc(OCCN3CCCC3)cc2)cc1
growth at 0.005 µM [1]: 103%
growth at 0.05 µM [2]: 95%
growth at 0.005 µM [3]: 95%
growth at 0.5 µM [4]: 68%
growth at 5 µM (KM12 [5]): 94%
growth at 50 µM (ACHN): -92%
growth at 0.5 µM [6]: 64%
growth at 50 µM (MDA-MB-468): -87%
growth at 5 µM (Malme-3M [7]): 81%
growth at 50 µM [8]: -73%
growth at 0.5 µM [9]: 61%
growth at 5 µM (SN12C): 95%
growth at 0.5 µM (Malme-3M [10]): 61%
remaining at 3 h, 10 µM [11]: 63%
growth at 0.05 µM (NCI-H226): 94%
growth at 5 µM (A549): 99%
growth at 50 µM (786-0 [12]): -84%
growth at 0.5 µM [13]: 81%
remaining at 3 h, 10 µM [14]: 36%

C/C(=C(/c1ccc(O)cc1)c1ccc(OCCN2CCCC2)cc1)c1ccccc1
growth at 100 µM [15]: -61%
growth at 0.01 µM [16]: 106%
growth at 100 µM (786-0 [17]): -85%
growth at 10 µM [18]: 41%
growth at 0.1 µM (NCI-H460): 106%
growth at 0.1 µM (M14): 93%
growth at 10 µM [19]: 37%
growth at 1 µM (MDA-MB-435): 87%
growth at 1 µM (KM12 [20]): 95%
growth at 0.01 µM [21]: 96%
growth at 10 µM [22]: -40%
growth at 0.01 µM [23]: 100%
growth at 100 µM [24]: -99%
growth at 100 µM [25]: -96%
growth at 0.01 µM [26]: 98%
growth at 0.1 µM [27]: 92%
growth at 10 µM [28]: -51%
growth at 0.1 µM [29]: 83%
growth at 0.01 µM (MDA-MB-231): 110%
growth at 1 µM [30]: 90%
growth at 1 µM [31]: 81%
growth at 0.1 µM [32]: 101%
